Results from ChEMBL document CHEMBL3585261, “Isolation and Pharmacological Evaluation of Minor Cannabinoids from High-Potency Cannabis sativa” (J Nat Prod, 2015).

How the values were obtained:
Mus musculus [1] = assay: Neurobehavioral effect on Swiss Webster mouse assessed as hot plate latency time at 10 mg/kg, ip (reference value: 8.32 +/- 2.20 %) by mouse tetrad assay; type: functional
Mus musculus [2] = assay: Neurobehavioral effect on Swiss Webster mouse assessed as catalepsy latency time at 10 mg/kg, ip (reference value: 2.1 +/- 0.60 secs) by mouse tetrad assay; type: functional
Mus musculus [3] = assay: Neurobehavioral effect on Swiss Webster mouse assessed as catalepsy latency time at 40 mg/kg, ip (reference value: 2.1 +/- 0.60 secs) by mouse tetrad assay; type: functional
Mus musculus [4] = assay: Neurobehavioral effect on Swiss Webster mouse assessed as decrease in rectal temperature at 20 mg/kg, ip (reference value: 0.58 +/- 0.26 degC) by mouse tetrad assay; type: functional
Mus musculus [5] = assay: Neurobehavioral effect on Swiss Webster mouse assessed as catalepsy latency time at 20 mg/kg, ip (reference value: 2.1 +/- 0.60 secs) by mouse tetrad assay; type: functional
Mus musculus [6] = assay: Neurobehavioral effect on Swiss Webster mouse assessed as hot plate latency time at 20 mg/kg, ip (reference value: 8.32 +/- 2.20 %) by mouse tetrad assay; type: functional
Mus musculus [7] = assay: Neurobehavioral effect on Swiss Webster mouse assessed as tail-flick latency time at 40 mg/kg, ip (reference value: 0.84 +/- 3.58 %) by mouse tetrad assay; type: functional
Mus musculus [8] = assay: Neurobehavioral effect on Swiss Webster mouse assessed as hot plate latency time at 40 mg/kg, ip (reference value: 8.32 +/- 2.20 %) by mouse tetrad assay; type: functional
Mus musculus [9] = assay: Neurobehavioral effect on Swiss Webster mouse assessed as tail-flick latency time at 20 mg/kg, ip (reference value: 0.84 +/- 3.58 %) by mouse tetrad assay; type: functional
Mus musculus [10] = assay: Neurobehavioral effect on Swiss Webster mouse assessed as decrease in rectal temperature at 10 mg/kg, ip (reference value: 0.58 +/- 0.26 degC) by mouse tetrad assay; type: functional
Mus musculus [11] = assay: Neurobehavioral effect on Swiss Webster mouse assessed as locomotor activity measured as total number of interruptions at 40 mg/kg, ip monitored for 30 mins (reference value: 2091 +/- 209.3) by mouse tetrad assay; type: functional
Mus musculus [12] = assay: Neurobehavioral effect on Swiss Webster mouse assessed as decrease in rectal temperature at 40 mg/kg, ip (reference value: 0.58 +/- 0.26 degC) by mouse tetrad assay; type: functional
Mus musculus [13] = assay: Neurobehavioral effect on Swiss Webster mouse assessed as locomotor activity measured as total number of interruptions at 20 mg/kg, ip monitored for 30 mins (reference value: 2091 +/- 209.3) by mouse tetrad assay; type: functional
Mus musculus [14] = assay: Neurobehavioral effect on Swiss Webster mouse assessed as tail-flick latency time at 10 mg/kg, ip (reference value: 0.84 +/- 3.58 %) by mouse tetrad assay; type: functional
Mus musculus [15] = assay: Neurobehavioral effect on Swiss Webster mouse assessed as locomotor activity measured as total number of interruptions at 10 mg/kg, ip monitored for 30 mins (reference value: 2091 +/- 209.3) by mouse tetrad assay; type: functional
Cannabinoid receptor 1 = Cannabinoid receptor 1 (Homo sapiens, UniProt P21554); assay: Displacement of [3H]CP55940 from full length human recombinant CB1 receptor expressed in HEK293 cells after 90 mins by scintillation counting analysis; type: cell-based
Cannabinoid receptor 1, sequence (P21554 whole entry): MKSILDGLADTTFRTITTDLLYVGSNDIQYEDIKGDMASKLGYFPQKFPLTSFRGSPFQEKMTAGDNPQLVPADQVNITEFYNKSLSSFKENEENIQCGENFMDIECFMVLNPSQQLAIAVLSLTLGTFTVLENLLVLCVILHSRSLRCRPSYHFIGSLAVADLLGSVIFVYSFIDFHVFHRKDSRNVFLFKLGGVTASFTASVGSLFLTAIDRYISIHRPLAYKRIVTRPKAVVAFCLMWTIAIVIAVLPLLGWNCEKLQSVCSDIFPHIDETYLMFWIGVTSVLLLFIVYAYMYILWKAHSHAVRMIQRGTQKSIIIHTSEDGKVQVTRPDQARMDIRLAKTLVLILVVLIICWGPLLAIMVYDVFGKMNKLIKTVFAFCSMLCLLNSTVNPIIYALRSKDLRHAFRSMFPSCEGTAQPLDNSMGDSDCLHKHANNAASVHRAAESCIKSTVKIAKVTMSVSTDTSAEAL

Cannabinoid receptor 2 = Cannabinoid receptor 2 (Homo sapiens, UniProt P34972); assay: Displacement of [3H]CP55940 from full length human recombinant CB2 receptor expressed in HEK293 cells after 90 mins by scintillation counting analysis; type: cell-based
Cannabinoid receptor 2, sequence (P34972 whole entry): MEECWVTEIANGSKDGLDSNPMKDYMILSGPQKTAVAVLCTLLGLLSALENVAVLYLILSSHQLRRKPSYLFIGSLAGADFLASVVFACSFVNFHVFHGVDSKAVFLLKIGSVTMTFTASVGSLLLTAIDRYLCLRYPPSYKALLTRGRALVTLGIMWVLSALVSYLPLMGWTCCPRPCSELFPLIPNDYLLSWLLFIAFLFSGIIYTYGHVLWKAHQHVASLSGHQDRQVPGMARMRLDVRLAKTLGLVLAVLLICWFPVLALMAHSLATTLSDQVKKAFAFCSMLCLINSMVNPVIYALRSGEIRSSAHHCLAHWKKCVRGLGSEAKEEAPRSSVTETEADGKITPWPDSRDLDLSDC

Mus musculus [16] = assay: Neurobehavioral effect on Swiss Webster mouse assessed as decrease in rectal temperature at 5 mg/kg, ip (reference value: 0.58 +/- 0.26 degC) by mouse tetrad assay; type: functional
Mus musculus [17] = assay: Neurobehavioral effect on Swiss Webster mouse assessed as catalepsy latency time at 5 mg/kg, ip (reference value: 2.1 +/- 0.60 secs) by mouse tetrad assay; type: functional
Mus musculus [18] = assay: Neurobehavioral effect on Swiss Webster mouse assessed as tail-flick latency time at 5 mg/kg, ip (reference value: 0.84 +/- 3.58 %) by mouse tetrad assay; type: functional
Mus musculus [19] = assay: Neurobehavioral effect on Swiss Webster mouse assessed as hot plate latency time at 5 mg/kg, ip (reference value: 8.32 +/- 2.20 %) by mouse tetrad assay; type: functional
Mus musculus [20] = assay: Neurobehavioral effect on Swiss Webster mouse assessed as locomotor activity measured as total number of interruptions at 5 mg/kg, ip monitored for 30 mins (reference value: 2091 +/- 209.3) by mouse tetrad assay; type: functional

| SMILES | MPE (Mus musculus [1]) [%] | Time (Mus musculus [2]) [s] | Time (Mus musculus [3]) [s] | T (Mus musculus [4]) [°C] | Time (Mus musculus [5]) [s] | MPE (Mus musculus [6]) [%] | MPE (Mus musculus [7]) [%] | MPE (Mus musculus [8]) [%] | MPE (Mus musculus [9]) [%] | T (Mus musculus [10]) [°C] | Activity (Mus musculus [11]) | T (Mus musculus [12]) [°C] | Activity (Mus musculus [13]) | MPE (Mus musculus [14]) [%] | Activity (Mus musculus [15]) | Ki (Cannabinoid receptor 1) [nM] | Ki (Cannabinoid receptor 2) [nM] | T (Mus musculus [16]) [°C] | Time (Mus musculus [17]) [s] | MPE (Mus musculus [18]) [%] | also measured |
| --- | --- | --- | --- | --- | --- | --- | --- | --- | --- | --- | --- | --- | --- | --- | --- | --- | --- | --- | --- | --- | --- |
| CCCCCc1cc(O)c2c(c1)OC(C)(C)[C@@H]1CCC(C)=C[C@@H]21 [DRONABINOL] | 29.04 | 14.4 | 37.7 | 4.25 | 47.9 | 46.85 | 51.96 | 38.18 | 42.21 | 2.05 | 194 | 4.8 | 276.2 | 6.52 | 190.9 |  |  |  |  |  |  |
| CCCCCc1cc(O)c2c(c1)OC(C)(C)[C@@H]1C[C@H](O)C(C)=C[C@@H]21 |  |  |  | 0.58 | 1.5 | 4.95 |  |  | 5.01 |  |  |  | 908.9 |  |  | 1910 | 3220 |  |  |  |  |
| CCCCCc1cc2c(c(O)c1C(=O)O)[C@@H]1C=C(COC(C)=O)CC[C@H]1C(C)(C)O2 |  |  |  |  |  |  |  |  |  |  |  |  |  |  |  | 47 | 912 |  |  |  |  |
| CCCCCc1cc(O)c2c(c1)OC(C)(C)[C@@H]1CC=C(C)C[C@@H]21 [DELTA-8-TETRAHYDROCANNABINOL] |  |  |  | 1.96 | 5.3 | 16.98 |  |  | 5.97 |  |  |  | 377.4 |  |  |  |  | 0.12 | 1.6 | 8.01 | MPE (Mus musculus [19]): 12.82%; Activity (Mus musculus [20]): 1480 |
| C=C1CC[C@@H]2[C@H](c3c(O)cc(CCCCC)cc3OC2(C)C)[C@H]1O |  |  |  |  |  |  |  |  |  |  |  |  |  |  |  | 117 | 129 |  |  |  |  |
| CCCCCc1cc(O)c2c(c1)OC(C)(C)[C@@H]1CC=C(C)[C@@H](O)[C@@H]21 | 6.819 | 1.4 | 13.7 |  |  |  | 69.95 | 55.65 |  | 0.47 | 2537 | 5.32 |  | 2.2 | 3045 | 830 | 3270 |  |  |  |  |
| CCCCCc1cc(O)c2c(c1)OC(C)(C)[C@@H]1CC[C@](C)(O)[C@@H](O)[C@@H]21 |  |  |  | 0.45 | 2.25 | 2.4 |  |  | 2.98 |  |  |  | 1892 |  |  | 5670 | 2140 |  |  |  |  |
| CCCCCc1cc(O)c2c(c1)OC(C)(C)[C@@H]1C[C@@H](O)C(C)=C[C@@H]21 | 11.83 | 1.143 | 11.43 | 0.5 | 1.43 | 2.04 | 12.69 | 11.79 | 1.62 | 0.49 | 777.4 | 0.91 | 1148 | 0.13 | 1617 | 65 | 88 |  |  |  |  |
| CCCCCc1cc(O)c2c(c1)OC(C)(C)[C@@H]1CC[C@@]3(C)O[C@H]3[C@@H]21 | 35.89 | 8.8 |  | 4.58 | 27.5 | 49.39 |  |  | 50.37 | 3.11 |  |  | 380.3 | 82.71 | 291.2 | 224 | 335 | 3.75 | 23.8 | 16.25 | MPE (Mus musculus [19]): 36.98%; Activity (Mus musculus [20]): 213.4 |
| CCCCCc1cc(O)c2c(c1)OC(C)(C)[C@@H]1CC=C(C)[C@H](O)[C@@H]21 | 56.33 | 23.9 |  | 5.38 | 51.1 | 47.63 |  |  | 90.16 | 3.21 |  |  | 301.9 | 31.46 | 288.3 | 31 | 30 | 2.46 | 22 | 37.4 | MPE (Mus musculus [19]): 21.04%; Activity (Mus musculus [20]): 318.1 |
